# In patent US20090076067A1, “PHARMACEUTICAL COMPOSITION COMPRISING AZARHODACYANINE COMPOUND AS ACTIVE INGREDIENT” (priority 2005, published 2009):
# Like-named read-outs stand apart in the source and are kept apart here.
# Experiments:
# Format in all cases: cell-based
# [1] = system: Rat-derived L6 cells (rat skeletal myoblast cell); assay: Rat L6 cell proliferation inhibition test; conditions: Alamar Blue
# [2] = system: Trypanosoma cruzi (Tulahuen C2C4 strain); assay: American trypanosoma protozoa proliferation inhibition screening test; conditions: for Selective toxicity: EC50 rat L6 cells / EC50 American trypanosoma protozoa; for EC50: Trypanosoma cruzi, read-out: EC50 Trypanosoma cruzi
# Procedure: In this experiment, amastigote and trypomastigote of Trypanosoma cruzi (Tulahuen C2C4 strain) infected to rat L6 cells were used. The medium used in the experiment was prepared as follows: to RPMI 1640 medium containing L6 cells, L-glutamine (200 mM) and fetal bovine serum was added to achieve concentration of 1% and 10%, respectively. The culture was conducted under CO2 concentration 5% and temperature 37° C.
# Either the compound of the invention or a positive control (benznidazole) was dissolved into DMSO to prepare test solution having predefined concentration. To each well in a 96-well culture plate, medium containing 5×10^3 protozoa was added and precultured for 48 hours. After replacing the medium, either the test solution containing compound of the invention in predefined concentration or DMSO without compound was added. The test solution was duplicated.
# The plate was cultured in an incubator for 96 hours, and the proliferation inhibition activity was examined. The activity was determined as follows. To each well, 50 μL CPRG/Nonidet was added, then left for 2 to 6 hours. Then the culture plate was mounted on an absorption microplate reader to determine absorption at 540 nm. The trypanosoma infection rate of the sample containing the test compound and that of the control sample was calculated.
# Using the protozoa infection rate thus obtained, the proliferation inhibition rate was calculated according to the following equation to determine 50% proliferation inhibition concentration (EC50).
# Proliferation inhibition rate(%)={1−(b−a)/(c−a)}×100
# a: initial infection rate b: infection rate of the test compound solution c: infection rate of the control
# [3] = system: Plasmodium Falciparum k1 strain; assay: Chloroquine-resistant tropical malaria protozoa proliferation inhibition screening test; conditions: for Selective toxicity: EC50 rat L6 cells / EC50 Chloroquine-resistant malaria protozoa; for EC50: Plasmodium falciparum
# Procedure, shortened: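 Infected erythrocytes (0.15% initial infection, 2.5% hematocrit) in RPMI-1640 with 5% human serum were cultured 48 h at 37 °C under 3% O2/4% CO2 with compound, then 24 h with 0.5 μCi [3H]hypoxanthine.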
# [4] = Rat L6 cell proliferation inhibition test; conditions: read-out: EC50 cytotoxicity L6; for EC50 at 72 h: L6 cells (rat skeletal myoblasts), Table 1, Alamar Blue
# [5] = Tulahuen C2C4 strain in rat L6 cells, 96 hours, CPRG/Nonidet
# [6] = chloroquine-resistant K1 strain, 3H-hypoxanthine uptake
# [7] = chloroquine-resistant K1 strain, 3H-hypoxanthine uptake, read-out: EC50 P. falciparum K1
SMILES,"EC50 cytotoxicity L6 ([1]; Table 1, 72 hours)","EC50 cytotoxicity L6 ([1]; Table 2, 72 hours)","EC50 cytotoxicity L6 ([1]; Table 3, 72 hours)","EC50 cytotoxicity L6 ([1]; Table 4, 72 hours)","EC50 Trypanosoma cruzi [2, 5]","EC50 P. falciparum K1 [3, 6]",EC50 at 72 h [4],Selective toxicity [3],"EC50 [3, 7]",Selective toxicity [2],"EC50 [2, 5]","EC50 ([4]; Table 1, rat L6 cells, 72 hours, Alamar Blue)","EC50 ([2]; TULAHUEN, L6, 96 h)","EC50 ([3]; K1, read-out: EC50 P. falciparum K1)"
CCN1C(=O)/C(=c2/s/c(=C3/SCCN3C)c(=O)n2CC)S/C1=N\c1sc2cc(OC)ccc2[n+]1C [Compound B-29],1.98 µg/mL,1.98 µg/mL,1.98 µg/mL,1.98 µg/mL,0.091 µg/mL,6 ng/mL,,,,,,,,
CCN1C(=O)/C(=c2/s/c(=C3/C=CC=CN3C)c(=O)n2CC)S/C1=N\c1sc2cc(Cl)ccc2[n+]1C [Compound B-2],,,,,,,27 µg/mL,4495,0.006 µg/mL,,,,,
CCn1c(=O)/c(=C2\SCCN2C)s/c1=C1\S/C(=N\c2sc3cc(Cl)ccc3[n+]2C)N(C(C)C)C1=O [Compound B-37],,,,,,,1.44 µg/mL,160,0.009 µg/mL,3,0.479 µg/mL,,,
CCN1C(=O)/C(=c2/s/c(=C3/SCCN3C)c(=O)n2CC)S/C1=N\c1sc2cc(F)ccc2[n+]1C [Compound B-33],9.83 µg/mL,9.83 µg/mL,9.83 µg/mL,9.83 µg/mL,0.66 µg/mL,16.7 ng/mL,,,,,,,,
"CN1/C(=c2\s/c(=C\c3cccc[n+]3CCC(=O)O)n(CC3CO3)c2=O)Sc2ccccc21 (stereo not shown) [Compound S-3, reference compound]",,>90 µg/mL,>90 µg/mL,>90 µg/mL,,,,>320,,,,> 90 µg/mL,> 30 µg/mL,0.28 µg/mL
CCN1C(=O)/C(=C2\C=Cc3ccccc3N2C)S/C1=N\c1sc2cc(Cl)ccc2[n+]1C [Compound A-2],,,,,,,5.5 µg/mL,2500,0.0022 µg/mL,18,0.31 µg/mL,,,
CCN1C(=O)/C(=c2/s/c(=C3/C=CC=CN3C)c(=O)n2CC)S/C1=N\c1sc2ccccc2[n+]1C [Compound B-30],7.46 µg/mL,7.46 µg/mL,7.46 µg/mL,7.46 µg/mL,0.74 µg/mL,11.9 ng/mL,,,,,,,,
CCN1C(=O)/C(=C2\Sc3ccccc3N2C)S/C1=N\c1sc2cc(Cl)ccc2[n+]1C [Compound A-1],,,,,,,37.9 µg/mL,255,0.148 µg/mL,,,,,
CCN1C(=O)/C(=c2/s/c(=C3/SCCN3C)c(=O)n2CC)S/C1=N\c1sc2cc(Cl)ccc2[n+]1C [Compound B-12],,,,,,,6.9 µg/mL,507,0.0136 µg/mL,7,0.98 µg/mL,,,
CCN1C(=O)/C(=c2/s/c(=C3/C=CC=CN3C)c(=O)n2CC)S/C1=N\c1sc2cc(OC)ccc2[n+]1C [Compound B-28],5.01 µg/mL,5.01 µg/mL,5.01 µg/mL,5.01 µg/mL,0.314 µg/mL,7 ng/mL,,,,,,,,
